The source of these data is patent US8178506B2, “Oligomeric compounds and compositions for use in modulation of small non-coding RNAs” (Regulus Therapeutics Inc., priority 2003, dated 2012).

In the oligonucleotide strings, read from the 5' end, every base follows the letter of its sugar. An asterisk marks phosphorothioate; unmarked linkages are phosphodiester. Other units and linkages are bracketed, terminal groups are in braces. A string of capitals states the bases alone. e = 2'-O-(2-methoxyethyl) (MOE); [5mC] = 5-methylcytosine; d = 2'-deoxy (DNA)

The data set relates to HeLa cells. Briefly: Cell cycle assay in HeLa cells. Type of data set: cell-based, human. The settings on record: for % cells in cell cycle phase: G1 / % cells in cell cycle phase: G2/M / % cells in cell cycle phase: S / % cells in cell cycle phase: aneuploid / % cells in cell cycle phase: subG1: 48 hours after treatment, relative to untreated control (UTC=100). The procedure:
In some embodiments, HeLa cells were plated on collagen-coated 24-well plates at 50,000-60,000 cells per well, and allowed to attach to wells overnight. In some embodiments, HeLa cells were synchronized by double thymidine block (cells were washed three times with PBS, then grown in 10% FBS containing 2 mM thymidine; then 19 hours later, cells were washed three times in PBS, 10% FBS for 9 hours; cells were then incubated in 10% FBS, 2 mM thymidine for 15 hours; then washed three times with PBS, 10% FBS and samples were taken every two hours over a 16 hour period). A portion of each time sample was fixed with ethanol and treated with propidium iodide and subjected to FACs analysis for determination of the percentage of cells in each phase of the cell cycle. […] HeLa cells treated with 10 μM cisplatin or 100 ng/ml nocodazole were used as controls for G1-phase and late G2/M-phases, respectively. From the remaining portion of each of these time samples, total RNA was isolated and used to assess the expression of cell cycle marker mRNAs using the real-time RT-PCR methods and/or used to screen microarrays to assess the expression of miRNAs over the course of the cell cycle. It was observed that several miRNAs are expressed in a cell-cycle-dependent manner. Shown in Table 30 are the mRNA levels of the E2F1 transcription factor and topoisomerase 2A (Top2A), which vary over the course of the cell cycle and can be used for comparison to the experimental groups for the confirmation of cell cycle phase. Data are an average of three trials.
In some embodiments, HeLa cells were also treated with oligomeric compounds targeting miRNAs. […] The medium was removed from the plates. Each well was washed in 250 μl of PBS. […] Control cells received LIPOFECTIN™ only. […] After 24 hours (Table 31) or 48 hours (Table 32), cells were prepared for flow cytometry analysis to generate a cell cycle profile. The cell cycle profile was analyzed with the ModFit program (Verity Software House, Inc., Topsham Me.).
The random-mer ISIS 29848 (SEQ ID NO: 737) was used as a negative control, and ISIS 183891 (SEQ ID NO: 847), targeting kinesin-like 1/Eg5, was included as a positive control. Data are expressed as percentage of cells in each phase relative to the untreated control (UTC); values above 100 are considered to indicate a delay or arrest in that phase of the cell cycle. […] In some cases, the same oligomeric compound was tested in repeated experiments.
In accordance with the present invention, certain oligomeric compounds targeting miRNAs were selected for dose response studies. Using the cell cycle assay described above, the cell cycle profiles of HeLa or A549 cells treated with varying concentrations of oligomeric compounds of the present invention were assessed.
HeLa cells were treated with 25-, 50-, 100- or 150 nM of the oligomeric compounds ISIS
Numbers 327902 (SEQ ID NO: 320) and 328383 (SEQ ID NO: 492), both targeted against mir-192, and ISIS 327905 (SEQ ID NO: 323), targeting mir-205, and ISIS 328403 (SEQ ID NO: 512), targeting mir-106. Cells treated with increasing concentrations of oligomeric compounds were compared to untreated cells, to assess the dose-dependency of the observed delay or arrest. The random-mer ISIS 29848 was used as a negative control. Cells were prepared for flow cytometry 48-hours after oligonucleotide treatment, as described, supra.

Setting [1] is: HeLa cells, 150 nM oligomeric compound, 24 hours, relative to untreated control (UTC = 100).
The mark [2] stands for this setting: HeLa cells, 150 nM oligomeric compound.
Where [3] appears, read: HeLa, 150 nM, both 24 and 48 hours.
[4] abbreviates: HeLa cells, 150 nM, 48 hours, relative to untreated control.

Turning to “328676 (eA*e[5mC]*e[5mC]*eT*e[5mC]*d[5mC]*d[5mC]*dA*dG*d[5mC]*d[5mC]*dA*dA*dT*d[5mC]*e[5mC]*eA*eT*eG*eT; antisense) [compound 328676]”, under setting [1], the “% cells aneuploid” value was determined as 169%, the “% cells in cell cycle phase G1” value is on record as 99%, the “% cells in cell cycle phase G2/M” value was determined as 134% and the “% cells in cell cycle phase S” value amounted to 86%. Besides, under setting [1], the “% cells in cell cycle phase subG1” value worked out at 139%. Also, under setting [2], the “% cells in cell cycle phase: G1” value is reported as 86%, the “% cells in cell cycle phase: G2/M” value amounted to 118%, the “% cells in cell cycle phase: S” value was determined as 118% and the “% cells in cell cycle phase: aneuploid” value came to 172%. The “% cells in cell cycle phase: subG1” value under setting [2] is recorded as 366%.
For “338741 (antisense GCTTCACAATTAGACCATCC; all 2'-MOE, all phosphorothioate, methylation of C not given here) [compound 338741]”, under setting [1], the “% cells aneuploid” value stood at 166%, the “% cells in cell cycle phase G1” value was 141%, the “% cells in cell cycle phase G2/M” value is given as 112% and the “% cells in cell cycle phase S” value is 73%. Under setting [1], the “% cells in cell cycle phase subG1” value is recorded as 157%. Besides, under setting [2], the “% cells in cell cycle phase: G1” value is 100%, the “% cells in cell cycle phase: G2/M” value is listed as 99%, the “% cells in cell cycle phase: S” value amounted to 101% and the “% cells in cell cycle phase: aneuploid” value was found to be 170%. For the same substance, the “% cells in cell cycle phase: subG1” value under setting [2] came out at 185%.
For the substance “ISIS 328759: SEQ ID NO: 668, targeted to mir-216 (eG*eA*eG*eG*eG*dA*dT*dT*dG*dT*dA*dT*dG*dA*dA*e[5mC]*eA*eT*e[5mC]*eT)”, where the note is “HeLa, 150 nM, 24-hour and 48-hour timepoints”, the “chromosome missegregation (subG1 or aneuploid DNA content)” value is “induce chromosome missegregation events”. Also, the “phase of the cell cycle in which cells arrest or delay” value (shortened to “phase of the cell cycle”) is, setting by setting: (HeLa, 150 nM, 48 hours) “delay or arrest resulted in the G2/M-phase”; under setting [3], “G2/M-phase”.
“CAGACTCCGGTGGAATGAAGGA (anti-miR; chemistry not fully specified) [ISIS 327905, uniform 2′-MOE PS; targets mir-205]”: under “HeLa, 150 nM, 48 hours”, the “phase of the cell cycle” value was “S-phase”.
As for “328727 (antisense e[5mC]*eT*eG*e[5mC]*eT*d[5mC]*d[5mC]*dA*dG*dA*dG*d[5mC]*d[5mC]*d[5mC]*dG*eA*eG*eT*e[5mC]*eG) [compound 328727]”, under setting [1], the “% cells aneuploid” value was determined as 161%, the “% cells in cell cycle phase G1” value is on record as 133%, the “% cells in cell cycle phase G2/M” value is 105% and the “% cells in cell cycle phase S” value was determined as 81%. Besides, the “% cells in cell cycle phase subG1” value under setting [1] was determined as 245%. Also, under setting [2], the “% cells in cell cycle phase: G1” value is 68%, the “% cells in cell cycle phase: G2/M” value is reported as 124%, the “% cells in cell cycle phase: S” value is 152% and the “% cells in cell cycle phase: aneuploid” value was 140%. Further, under setting [2], the “% cells in cell cycle phase: subG1” value is on record as 846%.
As for “ISIS 328403: 5-10-5 2′-MOE gapmer PS; SEQ ID NO 512; targets mir-106 pri-miRNA (eA*eG*eG*e[5mC]*e[5mC]*dT*dA*dT*dT*d[5mC]*d[5mC]*dT*dG*dT*dA*eG*e[5mC]*eA*eA*eA) [5-10-5 2′-MOE gapmer PS; targets mir-106 pri-miRNA]”, the “phase of the cell cycle” value by setting is: (HeLa, 150 nM, 24 hours) “G2/M-phase”; (HeLa, 150 nM, 48 hours) “S- and G2/M-phases”.
With “338797 (antisense CTGGGGAGGGGGTTAGCGTC; all 2'-MOE, all phosphorothioate, methylation of C not given here) [compound 338797]”, under setting [1], the “% cells aneuploid” value was found to be 193%, the “% cells in cell cycle phase G1” value is given as 101%, the “% cells in cell cycle phase G2/M” value is given as 148% and the “% cells in cell cycle phase S” value is 79%. Also, under setting [1], the “% cells in cell cycle phase subG1” value was 197%. Under setting [2], the “% cells in cell cycle phase: G1” value is 66%, the “% cells in cell cycle phase: G2/M” value is 168%, the “% cells in cell cycle phase: S” value worked out at 124% and the “% cells in cell cycle phase: aneuploid” value stood at 175%. The “% cells in cell cycle phase: subG1” value under setting [2] came out at 813%. Besides, under setting [4], the “% cells in cell cycle phase G1” value was found to be 104%, the “% cells in cell cycle phase G2/M” value worked out at 115%, the “% cells in cell cycle phase S” value is on record as 89% and the “% cells in cell cycle phase aneuploid” value is on record as 125%. Besides, under setting [4], the “% cells in cell cycle phase subG1” value is given as 144%.
As for “328780 (antisense eT*eG*eT*e[5mC]*eA*dT*dG*dG*dA*d[5mC]*dA*dG*dG*dA*dT*eG*eA*eA*eT*eA) [compound 328780]”, under setting [1], the “% cells aneuploid” value was determined as 149%, the “% cells in cell cycle phase G1” value is listed as 96%, the “% cells in cell cycle phase G2/M” value came to 136% and the “% cells in cell cycle phase S” value is reported as 87%. The “% cells in cell cycle phase subG1” value under setting [1] is 124%. In addition, under setting [2], the “% cells in cell cycle phase: G1” value turned out to be 83%, the “% cells in cell cycle phase: G2/M” value worked out at 110%, the “% cells in cell cycle phase: S” value was 130% and the “% cells in cell cycle phase: aneuploid” value stood at 133%. The “% cells in cell cycle phase: subG1” value under setting [2] stood at 917%.
“338809 (antisense CTGCTCCAGAGCCCGAGTCG; all 2'-MOE, all phosphorothioate, methylation of C not given here) [compound 338809]”: under setting [1], the “% cells aneuploid” value came out at 210%, the “% cells in cell cycle phase G1” value is given as 159%, the “% cells in cell cycle phase G2/M” value is listed as 69% and the “% cells in cell cycle phase S” value was determined as 82%. In addition, the “% cells in cell cycle phase subG1” value under setting [1] was 106%. Moreover, under setting [2], the “% cells in cell cycle phase: G1” value came out at 86%, the “% cells in cell cycle phase: G2/M” value was found to be 129%, the “% cells in cell cycle phase: S” value was 110% and the “% cells in cell cycle phase: aneuploid” value turned out to be 157%. Further, the “% cells in cell cycle phase: subG1” value under setting [2] is 345%.
Regarding “ISIS 341787: SEQ ID NO: 852, targeted against mir-125a (mouse) (CACAGGTTAAAGGGTCTCAGGGA; all 2'-MOE, all phosphorothioate, methylation of C not given here)”, the “phase of the cell cycle” value (HeLa, 150 nM, 48 hours) was “arrest or delay in G2/M as well as an increased percentage of cells in the subG1 and aneuploid categories”.
As to “ISIS 338678: SEQ ID NO: 505, targeted to the mir-205 pri-miRNA (CTGGTTGGGTATGAGACAGA; all 2'-MOE, all phosphorothioate, methylation of C not given here)”, under “HeLa, 150 nM, time point not stated”, the “phase of the cell cycle” value is listed as “G2/M-phase”.
Take “ISIS 328707: SEQ ID NO: 616, targeting miR-100-1 (eG*e[5mC]*eA*eA*e[5mC]*dA*dG*dG*d[5mC]*d[5mC]*dT*d[5mC]*dA*dA*dT*eA*eT*e[5mC]*eT*eT)”: the “phase of the cell cycle” value under setting [3] is on record as “G2/M-phase”.
Take “328339 (eG*e[5mC]*eA*eG*e[5mC]*dG*d[5mC]*dA*dG*d[5mC]*dT*dG*dG*dT*d[5mC]*eT*e[5mC]*e[5mC]*e[5mC]*e[5mC]) [compound 328339]”: under setting [1], the “% cells aneuploid” value is 61%, the “% cells in cell cycle phase G1” value is given as 77%, the “% cells in cell cycle phase G2/M” value stood at 143% and the “% cells in cell cycle phase S” value is listed as 102%. Further, the “% cells in cell cycle phase subG1” value under setting [1] is reported as 235%. Moreover, under setting [2], the “% cells in cell cycle phase: G1” value came to 73%, the “% cells in cell cycle phase: G2/M” value was 123%, the “% cells in cell cycle phase: S” value was found to be 153% and the “% cells in cell cycle phase: aneuploid” value is listed as 92%. Under setting [2], the “% cells in cell cycle phase: subG1” value is 678%.
